Test results published in US7666913B2, “Method of treating or preventing osteoporosis using isotaxiresinol derived from Taxus yunnanensis” (Kotosugi Inc., priority 2004, dated 2010).

Key:
Type in all cases: in vivo, rat
[1] = system: ovariectomized female Wistar rats, tibiae and femora; experiment: Antiosteoporotic activity in ovariectomized rats: weight and length of tibiae and femora; settings: for Femur Length / Femur Weight / Tibia Length / Tibia Weight: OVX rats, mean ± SD
Method: Each of the animal groups for experiments included comprised 10 rats. Ovaries were removed from female Wistar rats (age: 8 months, weight: 260-330 g). ITX, suspended in 1% water solution of carboxymethl cellulose sodium salt, was orally administered to rats of one group in a dose of 50 mg/kg (weight of rat) and to rats of another group in a dose of 100 mg/kg (weight of rat) 6 times per week after 2 weeks of the removal. […] An OVX (ovariectomized) group was prepared as negative control. Furthermore, another group was sham-operated as a Sham group. The OVX group and the Sham group were only fed, with no compound or drug given. Furthermore, a tibia, a femur, and a uterus were removed from every rat and then weighted. […] In the table, ITX 100 is a group of the rats which ITX was given to in a dose of 100 mg/kg, and ITX 50 is a group of the rats which ITX was given to in a dose of 50 mg/kg. E2 is a group of the rats which E2 was given to. The figures in each column of the table show averages and standard deviations of the measured values. The presentation of the figures applies to Table 3 and Table 4 as well.

[2] = system: ovariectomized female Wistar rats; experiment: Antiosteoporotic activity in ovariectomized rats: body weight and uterine weight
Method: Each of the animal groups for experiments included comprised 10 rats. Ovaries were removed from female Wistar rats (age: 8 months, weight: 260-330 g). ITX, suspended in 1% water solution of carboxymethl cellulose sodium salt, was orally administered to rats of one group in a dose of 50 mg/kg (weight of rat) and to rats of another group in a dose of 100 mg/kg (weight of rat) 6 times per week after 2 weeks of the removal.
An OVX (ovariectomized) group was prepared as negative control. Furthermore, another group was sham-operated as a Sham group. The OVX group and the Sham group were only fed, with no compound or drug given.
Furthermore, a tibia, a femur, and a uterus were removed from every rat and then weighted.

[3] = system: ovariectomized female Wistar rats, proximal tibia bone; experiment: Antiosteoporotic activity in ovariectomized rats: pQCT of proximal tibia (BMC, BMD, cortical geometry, bone strength indices); settings: for Cancellous bone BMC / Cancellous bone BMD / Cortical bone BMC / Cortical bone BMD / Cortical bone thickness / Edno. C. (endosteal circumference) / Peri. C. (periosteal circumference) / Total bone BMC / Total bone BMD / Cortical bone thickness as % of that of the Sham group / Bone strength index PSSI / Bone strength index XSSI / Bone strength index YSSI: OVX rats; for Cancellous bone BMC / Cancellous bone BMD / Cortical bone BMC / Cortical bone BMD / Cortical bone thickness / Edno. C. (endosteal circumference) / Peri. C. (periosteal circumference) / Total bone BMC / Total bone BMD / Bone strength index PSSI / Bone strength index XSSI / Bone strength index YSSI: 6 weeks, 1 mm under growth plate
Method: Antiosteoporotic Activity of ITX was Assessed by Using Rats. Each of the animal groups for experiments included comprised 10 rats. Ovaries were removed from female Wistar rats (age: 8 months, weight: 260-330 g). ITX, suspended in 1% water solution of carboxymethl cellulose sodium salt, was orally administered to rats of one group in a dose of 50 mg/kg (weight of rat) and to rats of another group in a dose of 100 mg/kg (weight of rat) 6 times per week after 2 weeks of the removal. […] An OVX (ovariectomized) group was prepared as negative control. Furthermore, another group was sham-operated as a Sham group. The OVX group and the Sham group were only fed, with no compound or drug given. Tibial characteristics of the rats, which were anesthetized in advance, were measured by means of peripheral quantitative computed tomography (pQCT) 6 weeks after the initiation of the administration (i.e., 8 weeks after the removal of the ovaries). In the measurement, the left tibiae were scanned with a pQCT system XCT Research M (manufactured by Stratec Medizintechnik GmbH, Germany). Voxel size was set to 0.08 mm, slice thickness was set to 0.5 mm, and cortical BMD threshold was set to 464 mg/cm^3. Furthermore, peel mode was set to 20 to divide total bone into cortical bone or cancerous bone. A growth plate was identified after preliminary scanning (scout scan), and then a reference position was identified. Next, transverse image sets of four cross-sectional slices were scanned at a region of 1 to 5 mm under the growth plate. Cortical BMC and BMD and cancellous BMC and BMD, thickness of cortical bone, and periosteal circumference and endosteal circumference of cortical bone were measured at a separation mode of 3 and a contour mode of 2. Three indices of bone strength (X-, Y-, and Polar-axes) were also measured, and the data obtained were processed by XCT Research Series Manual Software Version 5.4, in which case the standard cortical BMD was set to 1,200 mg/cm^3. […] The figures in the total bone columns show the values of the whole bone obtained by measuring cancellous bone and cortical bone together. […] The presentation of t-test results applies to Table 4 as well. In the experiment, three bone strength indexes were measured: PSSI (polar-axis strength index), XSSI (X-axis strength index), and YSSI (Y-axis strength index).

[4] = E2 0.1 mg/kg into abdominal cavity
[5] = ITX 50 mg/kg oral, 6 times per week
[6] = ITX 100 mg/kg oral, 6 times per week

SMILES: C[C@]12CC[C@@H]3c4ccc(O)cc4CC[C@H]3[C@@H]1CC[C@@H]2O [E2, 17β-estradiol, reference compound]
- Femur Length [1, 4]: 3.59 ± 0.15 cm
- Femur Weight [1, 4]: 861 ± 65 mg
- Tibia Length [1, 4]: 3.76 ± 0.14 cm
- Tibia Weight [1, 4]: 547 ± 94 mg
- Body weight at the end compared to the OVX group (in words) ([2]; E2 0.1 mg/kg): inhibition of increase
- Body weight at the end ([2]; OVX rats, E2 0.1 mg/kg into abdominal cavity, end of the experiment): 299 ± 33 g
- Decrease in uterine weight compared to the Sham group ([2]; OVX rats, E2 0.1 mg/kg, end of the experiment): 48.5%
- BMC and BMD (total, cancellous, cortical) compared to the OVX group (in words) ([3]; E2 0.1 mg/kg): inhibition of decrease in all but except total BMD and cancellous BMC
- Endosteal circumference compared to the OVX group (in words) ([3]; E2 0.1 mg/kg): inhibition of increase
- Increase in XSSI compared to the OVX group ([3]; E2 0.1 mg/kg): 15.3%
- Increase in YSSI compared to the OVX group ([3]; E2 0.1 mg/kg): 23.5%
- Increase in cortical bone thickness compared to the OVX group ([3]; E2 0.1 mg/kg): 9.8%
- Periosteal circumference compared to the OVX group (in words) ([3]; E2 0.1 mg/kg): a decrease
- Cancellous bone BMC [3, 4]: 0.96 ± 0.17 mg/mm
- Cancellous bone BMD [3, 4]: 244 ± 53 mg/mL
- Cortical bone BMC [3, 4]: 7.58 ± 0.48 mg/mm
- Cortical bone BMD [3, 4]: 1143 ± 22 mg/mL
- Cortical bone thickness [3, 4]: 0.56 ± 0.03 mm
- Edno. C. (endosteal circumference) [3, 4]: 9.79 ± 0.57 mm
- Peri. C. (periosteal circumference) [3, 4]: 13.4 ± 0.6 mm
- Total bone BMC [3, 4]: 10.5 ± 0.7 mg/mm
- Total bone BMD [3, 4]: 723 ± 38 mg/mL

SMILES: COc1cc2c(cc1O)[C@H](c1ccc(O)c(O)c1)[C@@H](CO)[C@H](CO)C2 [ITX, isotaxiresinol]
- Tibia weight compared with the OVX group (in words) ([1]; ITX 50 mg/kg oral): no significant difference
- Femur weight compared with the OVX group (in words) ([1]; ITX 100 mg/kg oral): no significant difference
- Femur Length [1, 5]: 3.64 ± 0.05 cm
- Femur Weight [1, 5]: 862 ± 64 mg
- Tibia Length [1, 5]: 3.98 ± 0.14 cm
- Tibia Weight [1, 5]: 588 ± 52 mg
- Femur Length [1, 6]: 3.59 ± 0.22 cm
- Femur Weight [1, 6]: 897 ± 83 mg
- Tibia Length [1, 6]: 3.97 ± 0.24 cm
- Tibia Weight [1, 6]: 562 ± 95 mg
- Body weight at the end compared to the OVX group (in words) ([2]; ITX 50 mg/kg oral): inhibition of increase
- Body weight at the end compared to the OVX group (in words) ([2]; ITX 100 mg/kg oral): inhibition of increase
- Body weight at the end ([2]; OVX rats, ITX 50 mg/kg oral, end of the experiment): 318 ± 18 g
- Body weight at the end ([2]; OVX rats, ITX 100 mg/kg oral, end of the experiment): 301 ± 15 g
- Cortical BMC compared to the OVX group (in words) ([3]; ITX 50 mg/kg oral): inhibition of decrease
- Cortical BMD compared to the OVX group (in words) ([3]; ITX 50 mg/kg oral): inhibition of decrease
- Endosteal circumference compared to the OVX group (in words) ([3]; ITX 50 mg/kg oral): inhibition of increase
- Increase in PSSI compared to the OVX group ([3]; ITX 50 mg/kg oral): 16.2%
- Increase in XSSI compared to the OVX group ([3]; ITX 50 mg/kg oral): 14.2%
- Increase in YSSI compared to the OVX group ([3]; ITX 50 mg/kg oral): 24.0%
- Periosteal circumference compared to the OVX group (in words) ([3]; ITX 50 mg/kg oral): the same level or an increase
- Total BMD compared to the OVX group (in words) ([3]; ITX 50 mg/kg oral): inhibition of decrease
- Cancellous BMC compared to the OVX group (in words) ([3]; ITX 100 mg/kg oral): inhibition of decrease
- Cortical BMD compared to the OVX group (in words) ([3]; ITX 100 mg/kg oral): inhibition of decrease
- Endosteal circumference compared to the OVX group (in words) ([3]; ITX 100 mg/kg oral): inhibition of increase
- Periosteal circumference compared to the OVX group (in words) ([3]; ITX 100 mg/kg oral): the same level or an increase
- Cortical bone thickness as % of that of the Sham group ([3]; ITX 50 mg/kg oral): 98.3%
- Bone strength index PSSI ([3]; ITX 50 mg/kg oral): 10.35 ± 0.89
- Bone strength index XSSI ([3]; ITX 50 mg/kg oral): 5.15 ± 0.62
- Bone strength index YSSI ([3]; ITX 50 mg/kg oral): 6.45 ± 0.67
- Cancellous bone BMC ([3]; ITX 50 mg/kg oral): 0.99 ± 0.12 mg/mm
- Cancellous bone BMD ([3]; ITX 50 mg/kg oral): 215 ± 25 mg/mL
- Cortical bone BMC ([3]; ITX 50 mg/kg oral): 7.72 ± 0.52 mg/mm
- Cortical bone BMD ([3]; ITX 50 mg/kg oral): 1137 ± 14 mg/mL
- Cortical bone thickness ([3]; ITX 50 mg/kg oral): 0.58 ± 0.03 mm
- Edno. C. (endosteal circumference) ([3]; ITX 50 mg/kg oral): 9.92 ± 0.54 mm
- Peri. C. (periosteal circumference) ([3]; ITX 50 mg/kg oral): 13.7 ± 0.5 mm
- Total bone BMC ([3]; ITX 50 mg/kg oral): 10.4 ± 0.8 mg/mm
- Total bone BMD ([3]; ITX 50 mg/kg oral): 707 ± 14 mg/mL
- Cortical bone thickness as % of that of the Sham group ([3]; ITX 100 mg/kg oral): 93.2%
- Bone strength index PSSI ([3]; ITX 100 mg/kg oral): 9.34 ± 0.70
- Bone strength index XSSI ([3]; ITX 100 mg/kg oral): 4.77 ± 0.68
- Bone strength index YSSI ([3]; ITX 100 mg/kg oral): 5.71 ± 0.41
- Cancellous bone BMC ([3]; ITX 100 mg/kg oral): 1.04 ± 0.15 mg/mm
- Cancellous bone BMD ([3]; ITX 100 mg/kg oral): 207 ± 28 mg/mL
- Cortical bone BMC ([3]; ITX 100 mg/kg oral): 7.40 ± 0.29 mg/mm
- Cortical bone BMD ([3]; ITX 100 mg/kg oral): 1138 ± 17 mg/mL
- Cortical bone thickness ([3]; ITX 100 mg/kg oral): 0.55 ± 0.03 mm
- Edno. C. (endosteal circumference) ([3]; ITX 100 mg/kg oral): 9.97 ± 0.37 mm
- Peri. C. (periosteal circumference) ([3]; ITX 100 mg/kg oral): 13.6 ± 0.4 mm
- Total bone BMC ([3]; ITX 100 mg/kg oral): 9.82 ± 0.37 mg/mm
- Total bone BMD ([3]; ITX 100 mg/kg oral): 683 ± 21 mg/mL
